Experimental data: US20040087633A1, “Methylidene oxazolidinone compound and preparation method thereof” (Korea Institute of Science and Technology, priority 2002, published 2004)
≈ marks a conversion by molar mass, not a printed value.

What was measured:
Assay in all cases: Anti-microbial activity test in vitro (agar dilution MIC)
MSSA C7142 = format: cell-based, Staphylococcus aureus; conditions: MSSA C7142; Agar Dilution method, Mueller Hinton Agar, 18 hours at 37° C.
Protocol: (§1) Anti-microbial activity test in vitro
(§2) Strains were cultivated for 18 hours at 37° C. in Agar Dilution method using Mueller Hinton Agar, and then plane plates inoculated with the strains by diluting them two times gradually were aligned in a row. Minimum inhibition concentration (MIC, μg/ml) for the representative compounds of the present invention, Linezolid (LZD) and vancomycin (VAN) were decided through visual observation, and the results are shown in the following tables 2 and 3.

CRSA C6043 = format: cell-based, Staphylococcus aureus; conditions: CRSA C6043; Agar Dilution method, Mueller Hinton Agar, 18 hours at 37° C.
Protocol: as §1, §2

MRSA C5100 = format: cell-based, Staphylococcus aureus; conditions: MRSA C5100; Agar Dilution method, Mueller Hinton Agar, 18 hours at 37° C.
Protocol: as §1, §2

MRSA C6068 = format: cell-based, Staphylococcus aureus; conditions: MRSA C6068; Agar Dilution method, Mueller Hinton Agar, 18 hours at 37° C.
Protocol: as §1, §2

MRSA C2207 = format: cell-based, Staphylococcus aureus; conditions: MRSA C2207; Agar Dilution method, Mueller Hinton Agar, 18 hours at 37° C.
Protocol: as §1, §2

CRSA C1062 = format: cell-based, Staphylococcus aureus; conditions: CRSA C1062; Agar Dilution method, Mueller Hinton Agar, 18 hours at 37° C.
Protocol: as §1, §2

MSSA C2214 = format: cell-based, Staphylococcus aureus; conditions: MSSA C2214; Agar Dilution method, Mueller Hinton Agar, 18 hours at 37° C.
Protocol: as §1, §2

VRE C6488 = format: cell-based, Enterococcus faecium; conditions: VRE C6488; Agar Dilution method, Mueller Hinton Agar, 18 hours at 37° C.
Protocol: as §1, §2

VRE C6487 = format: cell-based, Enterococcus faecium; conditions: VRE C6487; Agar Dilution method, Mueller Hinton Agar, 18 hours at 37° C.
Protocol: as §1, §2

S. pyogenes ATCC8668 = format: cell-based; conditions: S. pyogenes ATCC8668; Agar Dilution method, Mueller Hinton Agar, 18 hours at 37° C.
Protocol: as §1, §2

S. pyogenes C6012 = format: cell-based; conditions: S. pyogenes C6012; Agar Dilution method, Mueller Hinton Agar, 18 hours at 37° C.
Protocol: as §1, §2

E. faecalis C6288 = format: cell-based; conditions: E. faecalis C6288; Agar Dilution method, Mueller Hinton Agar, 18 hours at 37° C.
Protocol: as §1, §2

E. faecium C6301 = format: cell-based; conditions: E. faecium C6301; Agar Dilution method, Mueller Hinton Agar, 18 hours at 37° C.
Protocol: as §1, §2

S. pyogenes C6003 = format: cell-based; conditions: S. pyogenes C6003; Agar Dilution method, Mueller Hinton Agar, 18 hours at 37° C.
Protocol: as §1, §2

S. epidermidis C2235 = format: cell-based; conditions: S. epidermidis C2235; Agar Dilution method, Mueller Hinton Agar, 18 hours at 37° C.
Protocol: as §1, §2

E. faecalis C6291 = format: cell-based; conditions: E. faecalis C6291; Agar Dilution method, Mueller Hinton Agar, 18 hours at 37° C.
Protocol: as §1, §2

S. aureus ATCC 29213 = format: cell-based; conditions: Agar Dilution method, Mueller Hinton Agar, 18 hours at 37° C.
Protocol: as §1, §2

S. epidermidis C2230 = format: cell-based; conditions: S. epidermidis C2230; Agar Dilution method, Mueller Hinton Agar, 18 hours at 37° C.
Protocol: as §1, §2

S. epidermidis ATCC12228 = format: cell-based; conditions: S. epidermidis ATCC12228; Agar Dilution method, Mueller Hinton Agar, 18 hours at 37° C.
Protocol: as §1, §2

E. faecium C2252 = format: cell-based; conditions: E. faecium C2252; Agar Dilution method, Mueller Hinton Agar, 18 hours at 37° C.
Protocol: as §1, §2

E. faecalis ATCC29212 = format: cell-based; conditions: E. faecalis ATCC29212; Agar Dilution method, Mueller Hinton Agar, 18 hours at 37° C.
Protocol: as §1, §2

Row | Molecule | Minimum inhibition concentration (MIC) (MSSA C7142) | Minimum inhibition concentration (MIC) (CRSA C6043) | Minimum inhibition concentration (MIC) (MRSA C5100) | Minimum inhibition concentration (MIC) (MRSA C6068) | Minimum inhibition concentration (MIC) (MRSA C2207) | Minimum inhibition concentration (MIC) (CRSA C1062) | Minimum inhibition concentration (MIC) (MSSA C2214) | Minimum inhibition concentration (MIC) (VRE C6488) | Minimum inhibition concentration (MIC) (VRE C6487) | Minimum inhibition concentration (MIC) (S. pyogenes ATCC8668) | Minimum inhibition concentration (MIC) (S. pyogenes C6012) | Minimum inhibition concentration (MIC) (E. faecalis C6288) | Minimum inhibition concentration (MIC) (E. faecium C6301) | Minimum inhibition concentration (MIC) (S. pyogenes C6003) | Minimum inhibition concentration (MIC) (S. epidermidis C2235) | Minimum inhibition concentration (MIC) (E. faecalis C6291) | Minimum inhibition concentration (MIC) (S. aureus ATCC 29213) | Minimum inhibition concentration (MIC) (S. epidermidis C2230) | Minimum inhibition concentration (MIC) (S. epidermidis ATCC12228) | Minimum inhibition concentration (MIC) (E. faecium C2252) | also measured
1 | CC(=O)NC[C@H]1CN(c2ccc(N3CCC(=CC(=O)O)CC3)c(F)c2)C(=O)O1 [Compound 14, N-[[(5S)-3-[3-fluoro-4-(4-carboxymethylidenepiperidinyl)-phenyl]-2-oxo-5-oxazolidinyl]methyl]acetamide] | 8 µg/mL (≈ 20.4 µM) | 8 µg/mL (≈ 20.4 µM) | 4 µg/mL (≈ 10.2 µM) | 4 µg/mL (≈ 10.2 µM) | 8 µg/mL (≈ 20.4 µM) | 16 µg/mL (≈ 40.9 µM) | 8 µg/mL (≈ 20.4 µM) | 8 µg/mL (≈ 20.4 µM) | 1 µg/mL (≈ 2.55 µM) | 4 µg/mL (≈ 10.2 µM) | 8 µg/mL (≈ 20.4 µM) | 4 µg/mL (≈ 10.2 µM) | 4 µg/mL (≈ 10.2 µM) | 2 µg/mL (≈ 5.11 µM) | 1 µg/mL (≈ 2.55 µM) | 8 µg/mL (≈ 20.4 µM) | 8 µg/mL (≈ 20.4 µM) | 4 µg/mL (≈ 10.2 µM) | 1 µg/mL (≈ 2.55 µM) | 8 µg/mL (≈ 20.4 µM) | Minimum inhibition concentration (MIC) (E. faecalis ATCC29212): 8 µg/mL (≈ 20.4 µM)
2 | N-[[(5S)-3-[3-fluoro-4-(4-dicyanomethylidenepiperidinyl) phenyl]-2-oxo-5-oxazolidinyl]methyl]acetamide [Compound 6] | 4 µg/mL | 4 µg/mL | 4 µg/mL | 2 µg/mL | 4 µg/mL | 4 µg/mL | 4 µg/mL | 2 µg/mL | 4 µg/mL | 1 µg/mL | 1 µg/mL | 4 µg/mL | 2 µg/mL | 4 µg/mL | 2 µg/mL | 4 µg/mL | 2 µg/mL | 2 µg/mL | 1 µg/mL | 4 µg/mL | Minimum inhibition concentration (MIC) (E. faecalis ATCC29212): 4 µg/mL
3 | CC(=O)NC[C@H]1CN(c2ccc(N3CCC(=CC#N)CC3)c(F)c2)C(=O)O1 [Compound 8, N-[[(5S)-3-[3-fluoro-4-(4-cyanomethylidenepiperidinyl)-phenyl]-2-oxo-5-oxazolidinyl]methyl]acetamide] | 2 µg/mL (≈ 5.37 µM) | 2 µg/mL (≈ 5.37 µM) | 2 µg/mL (≈ 5.37 µM) | 1 µg/mL (≈ 2.69 µM) | 2 µg/mL (≈ 5.37 µM) | 2 µg/mL (≈ 5.37 µM) | 4 µg/mL (≈ 10.7 µM) | 4 µg/mL (≈ 10.7 µM) | 4 µg/mL (≈ 10.7 µM) | 0.5 µg/mL (≈ 1.34 µM) | 0.5 µg/mL (≈ 1.34 µM) | 2 µg/mL (≈ 5.37 µM) | 2 µg/mL (≈ 5.37 µM) | 2 µg/mL (≈ 5.37 µM) | 1 µg/mL (≈ 2.69 µM) | 2 µg/mL (≈ 5.37 µM) | 2 µg/mL (≈ 5.37 µM) | 2 µg/mL (≈ 5.37 µM) | 0.5 µg/mL (≈ 1.34 µM) | 2 µg/mL (≈ 5.37 µM) | Minimum inhibition concentration (MIC) (E. faecalis ATCC29212): 2 µg/mL (≈ 5.37 µM)
4 | CC(=O)NC[C@H]1CN(c2ccc(N3CCC(=Cc4cc(-c5csnc5C)no4)CC3)c(F)c2)C(=O)O1 [Compound 10, N-[[(5S)-3-[3-fluoro-4-((4-(3-(3-methyl-isothiazol-4-yl)-iso-xazolyl)methylidene)piperidinyl)phenyl]-2-oxo-5-oxazolidinyl]methyl]acetamide] | 8 µg/mL (≈ 15.6 µM) | 16 µg/mL (≈ 31.3 µM) | 8 µg/mL (≈ 15.6 µM) | 8 µg/mL (≈ 15.6 µM) | 16 µg/mL (≈ 31.3 µM) | 16 µg/mL (≈ 31.3 µM) | 16 µg/mL (≈ 31.3 µM) | 8 µg/mL (≈ 15.6 µM) | 4 µg/mL (≈ 7.82 µM) | 2 µg/mL (≈ 3.91 µM) | 2 µg/mL (≈ 3.91 µM) | 16 µg/mL (≈ 31.3 µM) | 8 µg/mL (≈ 15.6 µM) | 8 µg/mL (≈ 15.6 µM) | 4 µg/mL (≈ 7.82 µM) | 8 µg/mL (≈ 15.6 µM) | 16 µg/mL (≈ 31.3 µM) | 4 µg/mL (≈ 7.82 µM) | 2 µg/mL (≈ 3.91 µM) | 8 µg/mL (≈ 15.6 µM) | Minimum inhibition concentration (MIC) (E. faecalis ATCC29212): 16 µg/mL (≈ 31.3 µM)
5 | CC(=O)NC[C@H]1CN(c2ccc(N3CCC(=CC(C)OC(C)=O)CC3)c(F)c2)C(=O)O1 (stereo partly drawn) [Compound 23, N-[[(5S)-3-[3-fluoro-4-(4-(2-acetoxypropylidene)-piperidinyl)phenyl]-2-oxo-5-oxazolidinyl]methyl]acetamide] | 16 µg/mL (≈ 36.9 µM) | 16 µg/mL (≈ 36.9 µM) | 16 µg/mL (≈ 36.9 µM) | 8 µg/mL (≈ 18.5 µM) | 8 µg/mL (≈ 18.5 µM) | 16 µg/mL (≈ 36.9 µM) | 16 µg/mL (≈ 36.9 µM) | 4 µg/mL (≈ 9.23 µM) | 4 µg/mL (≈ 9.23 µM) | 0.5 µg/mL (≈ 1.15 µM) | 2 µg/mL (≈ 4.61 µM) | 8 µg/mL (≈ 18.5 µM) | 8 µg/mL (≈ 18.5 µM) | 8 µg/mL (≈ 18.5 µM) | 8 µg/mL (≈ 18.5 µM) | 8 µg/mL (≈ 18.5 µM) | 16 µg/mL (≈ 36.9 µM) | 8 µg/mL (≈ 18.5 µM) | 2 µg/mL (≈ 4.61 µM) | 8 µg/mL (≈ 18.5 µM) | Minimum inhibition concentration (MIC) (E. faecalis ATCC29212): 8 µg/mL (≈ 18.5 µM)
